The text below walks through data of patent US11629171B2, “Beta-hairpin peptidomimetics” (POLYPHOR AG, priority 2017, dated 2023).

Each structure is given as a SMILES string. Converted amounts (≈) assume the structure as drawn. Where a SMILES comes first, the peptide text is derived from it. Bridges are numbered along the chain shown (N, C = ends). Roman numbers before positions name the chains, in order. [ ]: non-standard residue; d: D form. NMeDab = CN[C@@H](CCN)C(=O)O; Tle = CC(C)(C)[C@H](N)C(=O)O; Hiv = CC(C)[C@H](O)C(=O)O; dDab = NCC[C@@H](N)C(=O)O; Nle = CCCC[C@H](N)C(=O)O; Dab = NCC[C@H](N)C(=O)O; Abu = CC[C@H](N)C(=O)O; Dap = NC[C@H](N)C(=O)O

Series [1] relates to human red blood cells (hRBC). The series is described as follows: Hemolysis. Format: cell-based. Particulars: red cells of human, 1 h, 200. In a few lines:
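hRBC washed 4× in PBS; 200 μg/mL peptide + 20% (v/v) hRBC, 1 h, 37° C, 300 rpm. Spin, supernatant ~7.5-fold diluted, OD540 blank corrected. % hemolysis = OD540 peptide / OD540 Triton X-100 × 100.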

In a further series the test system is male ICR mice. The series can be described thus: Tolerability in a mouse model (Maximum Tolerated Dose assay). Particulars: groups of 3. Format: in vivo. In a few lines:
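Groups of 3 male ICR mice weighing 23±3 g received two subcutaneous doses, 12 h apart, of 30 or 40 mg/kg in saline adjusted to pH 6.5-7.6. Observation for 30 min after each dose covered autonomic effects and acute toxicity, including death.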

Series [2] deals with Klebsiella pneumoniae 968733. Format: cell-based. Particulars: 968733. In a few lines: (§1)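 MIC in μg/mL, read as no visible growth after 18-20 hours at 35° C. Peptides were serially diluted two-fold in MH-II broth plus P-80 (0.002% final, v/v) and inoculated at about 10^6 CFU/mL following the CLSI broth microdilution standard.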
Series [3] deals with Acinetobacter baumannii DSM 30008. Format: cell-based. Conditions: DSM 30008. Put shortly: as §1
In series [4] the test system is Klebsiella pneumoniae SSI #3010. Format: cell-based. Particulars: SSI #3010. Put shortly: as §1
In series [5] the test system is Enterobacter cloacae 848840. Format: cell-based. Conditions: 848840. Put shortly:
as §1

The test system of series [6] is Pseudomonas aeruginosa ATCC 27853. Format: cell-based. Particulars: ATCC 27853. Put shortly: as §1
The subject of series [7] is Acinetobacter baumannii 872842. Format: cell-based. Particulars: 872842. Put shortly:
as §1

A further series concerns Escherichia coli 926415. Format: cell-based. Particulars: 926415. Put shortly: as §1
The subject of series [8] is Escherichia coli ATCC 25922. Format: cell-based. Particulars: ATCC 25922. Put shortly: as §1
Setting [9] is: 2 × 30 mg/kg s.c. at a 12-hr interval.
Where [10] appears, read: 2 × 40 mg/kg s.c. at a 12-hr interval.

Turning to `CCCC[C@H](NC(C)=O)C(=O)N[C@H]1CSSC[C@@H](C(=O)N[C@H](C(N)=O)[C@@H](C)O)NC(=O)[C@H]([C@@H](C)CC)NC(=O)[C@H](CO)NC(=O)[C@H](Cc2c[nH]c3ccccc23)NC(=O)[C@H](CCN)NC(=O)[C@@H](CCN)NC(=O)[C@H](CCC(=O)N[C@@H](CCN)C(=O)N[C@H](C(=O)N[C@@H](CN)C(=O)N[C@H]2CCNC(=O)[C@H]([C@@H](C)O)NC(=O)[C@H](CCN)NC(=O)[C@H](CCN)NC(=O)[C@H](CC)NC(=O)[C@@H](CC(C)C)NC(=O)[C@H](CCN)NC2=O)[C@@H](C)O)NC(=O)[C@H](CO)NC(=O)[C@H](Cc2ccc(O)cc2)NC1=O` [Ex. 259] (I: Ac-[Nle]CYSE[dDab][Dab]WSICT-NH2 / II: [Dab]T[Dap][Dab][Dab][dL][Abu][Dab][Dab]T; disulfide I:2-I:11; amide I:5-II:N; lactam II:4-II:C), the “Hemolysis at 200 μg/mL” value in series [1] turned out to be 2%. Moreover, the Mortality and dose with male ICR mice (setting [9]) is recorded as 0/3 died at 2 × 30 mg/kg. The MIC in series [2] came to 0.0625 µg/mL (≈ 0.0259 µM); in series [3], 0.01562 µg/mL (≈ 0.00647 µM); in series [4] it was 0.03125 µg/mL (≈ 0.013 µM); in [5] it was 0.0625 µg/mL (≈ 0.0259 µM); in [6], 0.0625 µg/mL (≈ 0.0259 µM); in series [7], 0.03125 µg/mL (≈ 0.013 µM). In addition, the results for the MIC (against Escherichia coli 926415; in series [8]) were 0.125 µg/mL (≈ 0.0518 µM) and 0.01562 µg/mL (≈ 0.00647 µM), respectively.
With `CC(=O)N[C@H](C(=O)N[C@H]1CSSC[C@@H](C(=O)N[C@@H](CO)C(N)=O)NC(=O)[C@H](C(C)C)NC(=O)[C@H](CO)NC(=O)[C@H](Cc2c[nH]c3ccccc23)NC(=O)[C@H](CO)NC(=O)[C@@H](CCN)NC(=O)[C@H](CCC(=O)N(C)[C@@H](CCN)C(=O)N[C@H](C(=O)N[C@@H](CN)C(=O)N[C@H]2CCNC(=O)[C@H]([C@@H](C)O)NC(=O)[C@H](CCN)NC(=O)[C@H](CCN)NC(=O)[C@H](CC(C)C)NC(=O)[C@@H](CC(C)C)NC(=O)[C@H](CCN)NC2=O)[C@@H](C)O)NC(=O)[C@H](CCN)NC(=O)[C@H](Cc2ccc(O)cc2)NC1=O)C(C)C` [Ex. 311] (I: Ac-VCY[Dab]E[dDab]SWSVCS-NH2 / II: [NMeDab]T[Dap][Dab][Dab][dL]L[Dab][Dab]T; disulfide I:2-I:11; amide I:5-II:N; lactam II:4-II:C), in [1], the “Hemolysis at 200 μg/mL” value is recorded as less than 1%. The Mortality and dose with male ICR mice (setting [10]) is 0/3 died at 2 × 40 mg/kg. The MIC stood at 0.125 µg/mL (≈ 0.0518 µM) in [2], 0.125 µg/mL (≈ 0.0518 µM) in series [5], 0.125 µg/mL (≈ 0.0518 µM) in series [7] and 0.25 µg/mL (≈ 0.104 µM) with Escherichia coli 926415. In addition, in series [3], the “Acinetobacter baumannii DSM 30008 MIC” value was 0.0625 µg/mL. Moreover, in series [4], the “Klebsiella pneumoniae SSI #3010 MIC” value amounted to 0.0625 µg/mL. Besides, the “Pseudomonas aeruginosa ATCC 27853 MIC” value in series [6] was determined as 0.25 µg/mL. In addition, in [8], the “Escherichia coli ATCC 25922 MIC” value is 0.0625 µg/mL.
Turning to `CC(=O)N[C@H](C(=O)N[C@H]1CSSC[C@@H](C(=O)N[C@@H](CO)C(N)=O)NC(=O)[C@H](C(C)(C)C)NC(=O)[C@H](CO)NC(=O)[C@H](Cc2c[nH]c3ccccc23)NC(=O)[C@H](CCN)NC(=O)[C@@H](CCN)NC(=O)[C@H](CCC(=O)N[C@@H](CCN)C(=O)N[C@H](C(=O)N[C@@H](CN)C(=O)N[C@H]2CCNC(=O)[C@H]([C@@H](C)O)NC(=O)[C@H](CCN)NC(=O)[C@H](CCN)NC(=O)[C@H]([C@@H](C)O)NC(=O)[C@@H](CC(C)C)NC(=O)[C@H](CCN)NC2=O)[C@@H](C)O)NC(=O)[C@H](CO)NC(=O)[C@H](Cc2ccc(O)cc2)NC1=O)C(C)C` [Ex. 261] (I: Ac-VCYSE[dDab][Dab]WS[Tle]CS-NH2 / II: [Dab]T[Dap][Dab][Dab][dL]T[Dab][Dab]T; disulfide I:2-I:11; amide I:5-II:N; lactam II:4-II:C), in series [1], the “Hemolysis at 200 μg/mL” value is reported as 1%. Further, in the series on male ICR mice (setting [9]), the Mortality and dose was 0/3 died at 2 × 30 mg/kg. Moreover, the MIC in series [2] worked out at 0.25 µg/mL (≈ 0.104 µM); in [3] it was 0.03125 µg/mL (≈ 0.013 µM); in series [4] it was 0.0625 µg/mL (≈ 0.026 µM); in [5], 0.125 µg/mL (≈ 0.0521 µM); in [6] it was 0.125 µg/mL (≈ 0.0521 µM); in [7] it was 0.0625 µg/mL (≈ 0.026 µM). Besides, the MIC in the series on Escherichia coli 926415 amounted to 0.125 µg/mL (≈ 0.0521 µM); in [8] it was 0.03125 µg/mL (≈ 0.013 µM).
Regarding `CC(C)C[C@@H]1NC(=O)[C@@H](CC(C)C)NC(=O)[C@H](CCN)NC(=O)[C@@H](NC(=O)[C@H](CN)NC(=O)[C@@H](NC(=O)[C@H](CCN)NC(=O)CC[C@@H]2NC(=O)[C@H](CCN)NC(=O)[C@H](Cc3ccc(O)cc3)NC(=O)[C@@H](NC(=O)[C@@H](O)C(C)C)CSSC[C@@H](C(=O)N[C@@H](CO)C(=O)N[C@H](C)C(N)=O)NC(=O)[C@H](C(C)C)NC(=O)[C@H](CO)NC(=O)[C@H](Cc3c[nH]c4ccccc34)NC(=O)[C@H](CO)NC(=O)[C@@H](CCN)NC2=O)[C@@H](C)O)CCNC(=O)[C@H]([C@@H](C)O)NC(=O)[C@H](CCN)NC(=O)[C@H](CCN)NC1=O` [Ex. 379] (I: H-[Hiv]CY[Dab]E[dDab]SWSVCS[dA]-NH2 / II: [Dab]T[Dap][Dab][Dab][dL]L[Dab][Dab]T; disulfide I:2-I:11; amide I:5-II:N; lactam II:4-II:C), in [1], the “Hemolysis at 200 μg/mL” value is recorded as less than 1%. Also, the Mortality and dose in the series with male ICR mice (setting [10]) was 0/3 died at 2 × 40 mg/kg. The MIC in series [2] worked out at 0.25 µg/mL (≈ 0.103 µM); in series [5], 1 µg/mL (≈ 0.412 µM); in [7], 0.125 µg/mL (≈ 0.0515 µM); in the series with Escherichia coli 926415 it was 0.25 µg/mL (≈ 0.103 µM). For the same molecule, the “Acinetobacter baumannii DSM 30008 MIC” value in series [3] was 0.0625 µg/mL. For the same molecule, the “Klebsiella pneumoniae SSI #3010 MIC” value in series [4] is 0.0625 µg/mL. Also, the “Pseudomonas aeruginosa ATCC 27853 MIC” value in [6] was found to be 0.125 µg/mL. The “Escherichia coli ATCC 25922 MIC” value in series [8] stood at 0.03125 µg/mL.
As for `CC[C@@H]1NC(=O)[C@@H](CC(C)C)NC(=O)[C@H](CCN)NC(=O)[C@@H](NC(=O)[C@H](CN)NC(=O)[C@@H](NC(=O)[C@H](CCN)NC(=O)CC[C@@H]2NC(=O)[C@H](CO)NC(=O)[C@H](Cc3ccc(O)cc3)NC(=O)[C@@H](NC(=O)[C@@H](NC(C)=O)C(C)C)CSSC[C@@H](C(=O)N[C@@H](CO)C(N)=O)NC(=O)[C@H]([C@@H](C)CC)NC(=O)[C@H](CO)NC(=O)[C@H](Cc3c[nH]c4ccccc34)NC(=O)[C@H](CCN)NC(=O)[C@@H](CCN)NC2=O)[C@@H](C)O)CCNC(=O)[C@H]([C@@H](C)O)NC(=O)[C@H](CCN)NC(=O)[C@H](CCN)NC1=O` [Ex. 257] (I: Ac-VCYSE[dDab][Dab]WSICS-NH2 / II: [Dab]T[Dap][Dab][Dab][dL][Abu][Dab][Dab]T; disulfide I:2-I:11; amide I:5-II:N; lactam II:4-II:C), the “Hemolysis at 200 μg/mL” value in series [1] is 1%. The Mortality and dose with male ICR mice (setting [9]) is listed as 0/3 died at 2 × 30 mg/kg. The MIC amounted to 0.125 µg/mL (≈ 0.0524 µM) in series [2]; 0.03125 µg/mL (≈ 0.0131 µM) in series [3]; 0.03125 µg/mL (≈ 0.0131 µM) in [4]; 0.0625 µg/mL (≈ 0.0262 µM) in series [5]; 0.0625 µg/mL (≈ 0.0262 µM) in series [6]; 0.03125 µg/mL (≈ 0.0131 µM) in series [7]. In addition, the MIC was found to be 0.0625 µg/mL (≈ 0.0262 µM) in the series on Escherichia coli 926415 and 0.03125 µg/mL (≈ 0.0131 µM) in series [8].

As usually defined, the MIC is the smallest concentration in the dilution series that meets the test's criterion for growth inhibition. Higher therefore signals a less susceptible organism.
